# Laboratory results from ChEMBL document CHEMBL1201862, “PubChem BioAssay data set” (2004).
# Several values for one entry are separate records, joined by “and”; a condition that tells them apart may be missing. Identical values can stand only once.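 A five-concentration, 48-hour dose response in 96-well plates underlies each endpoint, interpolated linearly between surrounding concentrations. GI50: concentration for 50% inhibition of growth.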 Activity calls are given as the source filed them. No stated cut-off is given here; in the data, active = GI50 up to about 1.1 µM and inactive = higher.
# How the values were obtained:
# Assay in all cases: inhibition of tumour cell growth, NCI panel, 48 h
# DLD-1 = system: DLD-1
# NCI-H460 = system: NCI-H460
# HOP-18 = system: HOP-18
# SNB-75 = system: SNB-75
# RXF 393 = system: RXF 393
# ACHN = system: ACHN
# SF-268 = system: SF-268
# SK-MEL-2 = system: SK-MEL-2
# XF498 = system: XF498
# DU-145 = system: DU-145
# SNB-78 = system: SNB-78
# M19-MEL = system: M19-MEL
# A549 = system: A549
# DMS-273 = system: DMS-273
# MDA-MB-231 = system: MDA-MB-231
# MDA-N = system: MDA-N
# MDA-MB-435 = system: MDA-MB-435
# HCT-116 = system: HCT-116
# HOP-62 = system: HOP-62
# LOX IMVI = system: LOX IMVI
# 786-0 = system: 786-0
# SW-620 = system: SW-620
# NCI/ADR-RES = system: NCI/ADR-RES
# SN12C = system: SN12C
# T47D = system: T47D
# CCRF-CEM = system: CCRF-CEM
# TK-10 = system: TK-10
# PC-3 = system: PC-3
# HCC 2998 = system: HCC 2998
# M14 = system: M14
# KM-20L2 = system: KM-20L2
# Malme-3M = system: Malme-3M
# SF-539 = system: SF-539
# DMS-114 = system: DMS-114
# NCI-H23 = system: NCI-H23
# SF-295 = system: SF-295
# MCF7 = system: MCF7
# UACC-62 = system: UACC-62
# COLO 205 = system: COLO 205
# MOLT-4 = system: MOLT-4
# HT-29 = system: HT-29
# OVCAR-5 = system: OVCAR-5
# NCI-H226 = system: NCI-H226
# NCI-H522 = system: NCI-H522
# UO-31 = system: UO-31
# SK-OV-3 = system: SK-OV-3
# A498 = system: A498
# U-251 = system: U-251
# OVCAR-4 = system: OVCAR-4
# OVCAR-3 = system: OVCAR-3
# IGROV-1 = system: IGROV-1
# OVCAR-8 = system: OVCAR-8
# UACC-257 = system: UACC-257
# HCT-15 = system: HCT-15
# HOP-92 = system: HOP-92
# CAKI-1 = system: CAKI-1
# SK-MEL-5 = system: SK-MEL-5
# K562 = system: K562
# KM12 = system: KM12
# HL-60 = system: HL-60
# SK-MEL-28 = system: SK-MEL-28
# SNB-19 = system: SNB-19
# EKVX = system: EKVX
# LXFL 529 = system: LXFL 529
# RPMI-8226 = system: RPMI-8226
# SR = system: SR
smiles,measurement,setting,value
Nc1ncnc2c1ncn2C1OC(CO)C(O)C1O (centres undefined),GI50,DLD-1,> 373 µM (inactive)
same,GI50,NCI-H460,22.3 µM (inactive)
same,GI50,HOP-18,107 µM (inactive)
same,GI50,SNB-75,117 µM (inactive)
same,GI50,RXF 393,104 µM (inactive)
same,GI50,ACHN,40.6 µM (inactive)
same,GI50,SF-268,232 µM (inactive)
same,GI50,SK-MEL-2,97.1 µM (inactive)
same,GI50,XF498,> 450 µM (inactive)
same,GI50,DU-145,22.9 µM (inactive)
same,GI50,SNB-78,> 450 µM (inactive)
same,GI50,M19-MEL,333 µM (inactive)
same,GI50,A549,132 µM (inactive)
same,GI50,DMS-273,103 µM (inactive)
same,GI50,MDA-MB-231,> 100 µM (inactive)
same,GI50,MDA-N,> 100 µM (inactive)
same,GI50,MDA-MB-435,> 100 µM (inactive)
same,GI50,HCT-116,106 µM (inactive) and 58.2 µM (inactive)
same,GI50,HOP-62,61.9 µM (inactive) and 70.5 µM (inactive)
same,GI50,LOX IMVI,84.3 µM (inactive) and 44.2 µM (inactive)
same,GI50,786-0,43.3 µM (inactive)
same,GI50,SW-620,153 µM (inactive)
same,GI50,NCI/ADR-RES,117 µM (inactive)
same,GI50,SN12C,136 µM (inactive)
same,GI50,T47D,77.3 µM (inactive)
same,GI50,CCRF-CEM,36.7 µM (inactive) and 34.3 µM (inactive)
same,GI50,TK-10,> 100 µM (inactive)
same,GI50,PC-3,31 µM (inactive)
same,GI50,HCC 2998,34.9 µM (inactive) and 43.4 µM (inactive)
same,GI50,M14,> 100 µM (inactive)
same,GI50,KM-20L2,234 µM (inactive)
same,GI50,Malme-3M,274 µM (inactive)
same,GI50,SF-539,179 µM (inactive)
same,GI50,DMS-114,68.1 µM (inactive)
O=P(NCCCO)(OCc1ccccc1)N(CCCl)CCCl (centres undefined),GI50,NCI-H23,> 100 µM (inactive)
same,GI50,DLD-1,> 31.6 µM (inactive)
same,GI50,NCI-H460,> 100 µM (inactive)
same,GI50,HOP-18,> 39.5 µM (inactive)
same,GI50,SNB-75,> 100 µM (inactive)
same,GI50,SF-295,> 100 µM (inactive)
same,GI50,RXF 393,> 100 µM (inactive)
same,GI50,MCF7,> 100 µM (inactive)
same,GI50,SF-268,> 100 µM (inactive)
same,GI50,SK-MEL-2,> 100 µM (inactive)
same,GI50,XF498,> 100 µM (inactive)
same,GI50,UACC-62,> 100 µM (inactive)
same,GI50,SNB-78,> 100 µM (inactive)
same,GI50,M19-MEL,> 100 µM (inactive)
same,GI50,A549,> 100 µM (inactive)
same,GI50,COLO 205,> 100 µM (inactive)
same,GI50,MOLT-4,> 100 µM (inactive)
same,GI50,DMS-273,> 100 µM (inactive)
same,GI50,HT-29,> 100 µM (inactive)
same,GI50,OVCAR-5,> 100 µM (inactive)
same,GI50,HCT-116,> 100 µM (inactive)
same,GI50,NCI-H226,> 100 µM (inactive)
same,GI50,NCI-H522,> 100 µM (inactive)
same,GI50,UO-31,> 100 µM (inactive)
same,GI50,SK-OV-3,> 100 µM (inactive)
same,GI50,A498,> 100 µM (inactive)
same,GI50,LOX IMVI,> 100 µM (inactive)
same,GI50,U-251,> 100 µM (inactive)
same,GI50,OVCAR-4,> 100 µM (inactive)
same,GI50,SW-620,> 100 µM (inactive)
same,GI50,OVCAR-3,> 100 µM (inactive)
same,GI50,IGROV-1,> 74.5 µM (inactive)
same,GI50,OVCAR-8,> 100 µM (inactive)
same,GI50,NCI/ADR-RES,> 100 µM (inactive)
same,GI50,SN12C,> 100 µM (inactive)
same,GI50,CCRF-CEM,> 100 µM (inactive)
same,GI50,UACC-257,> 100 µM (inactive)
same,GI50,HCT-15,> 100 µM
same,GI50,HCC 2998,> 100 µM (inactive)
same,GI50,HOP-92,> 100 µM (inactive)
same,GI50,CAKI-1,> 100 µM (inactive)
same,GI50,SK-MEL-5,> 100 µM (inactive)
same,GI50,KM-20L2,> 100 µM (inactive)
same,GI50,K562,> 100 µM (inactive)
same,GI50,Malme-3M,> 100 µM (inactive)
same,GI50,SF-539,> 100 µM (inactive)
same,GI50,KM12,> 100 µM (inactive)
same,GI50,HL-60,> 100 µM (inactive)
same,GI50,SK-MEL-28,> 100 µM (inactive)
same,GI50,SNB-19,> 100 µM (inactive)
CCOc1ccc(/C=C(\Cl)c2ccc(OC)c(OC)c2)cc1,GI50,NCI-H23,19.3 µM (inactive)
same,GI50,DLD-1,22.5 µM (inactive)
same,GI50,EKVX,80.4 µM (inactive)
same,GI50,HOP-18,57.9 µM (inactive)
same,GI50,SNB-75,> 100 µM (inactive)
same,GI50,SF-295,80.9 µM (inactive)
same,GI50,RXF 393,12.4 µM (inactive)
same,GI50,ACHN,36.4 µM (inactive)
same,GI50,SF-268,87.3 µM (inactive)
same,GI50,XF498,> 100 µM (inactive)
same,GI50,UACC-62,20.5 µM (inactive)
same,GI50,LXFL 529,35.9 µM (inactive)
same,GI50,SNB-78,89.5 µM (inactive)
same,GI50,M19-MEL,37.4 µM (inactive)
same,GI50,A549,35.2 µM (inactive)
same,GI50,COLO 205,48.2 µM (inactive)
same,GI50,MOLT-4,26.2 µM (inactive)
same,GI50,DMS-273,22 µM (inactive)
same,GI50,HT-29,16.6 µM (inactive)
same,GI50,RPMI-8226,20 µM (inactive)
same,GI50,HCT-116,32.6 µM (inactive)
same,GI50,NCI-H226,33.1 µM (inactive)
same,GI50,NCI-H522,19.2 µM (inactive)
same,GI50,UO-31,28.7 µM (inactive)
same,GI50,HOP-62,98.6 µM (inactive)
same,GI50,SK-OV-3,77.1 µM (inactive)
same,GI50,A498,27.6 µM (inactive)
same,GI50,786-0,> 100 µM (inactive)
same,GI50,U-251,> 100 µM (inactive)
same,GI50,OVCAR-4,33.3 µM (inactive)
same,GI50,SW-620,50.6 µM (inactive)
same,GI50,IGROV-1,84.9 µM (inactive)
same,GI50,OVCAR-8,63.8 µM (inactive)
same,GI50,SN12C,60.3 µM (inactive)
same,GI50,CCRF-CEM,37.1 µM (inactive)
same,GI50,UACC-257,21 µM (inactive)
same,GI50,HCT-15,20.9 µM
same,GI50,HCC 2998,41.6 µM (inactive)
same,GI50,HOP-92,55.3 µM (inactive)
same,GI50,SR,12.2 µM (inactive)
same,GI50,M14,25.3 µM (inactive)
same,GI50,SK-MEL-5,26.5 µM (inactive)
same,GI50,KM-20L2,16.7 µM (inactive)
same,GI50,K562,30.8 µM (inactive)
same,GI50,Malme-3M,58.9 µM (inactive)
same,GI50,SF-539,> 100 µM (inactive)
same,GI50,DMS-114,26.6 µM (inactive)
same,GI50,HL-60,21.8 µM (inactive)
same,GI50,SK-MEL-28,38.5 µM (inactive)
same,GI50,SNB-19,> 100 µM (inactive)
